Results from ChEMBL document CHEMBL1125529, “NMDA antagonist activity of (+/-)-(2SR,4RS)-4-(1H-tetrazol-5-ylmethyl)piperidine-2-carboxylic acid resides with the (-)-2R,4S-isomer” (J Med Chem, 1992).

Tests used:
Glutamate NMDA receptor [1] = assay: Ability to inhibit [3H]-CGS- 19755 binding to NMDA receptor; format: protein-complex assay
Glutamate NMDA receptor [2] = assay: Compound was tested for the antagonistic activity against depolarizations due to NMDA using rat cortical slice preparation; format: functional

| Compound | IC50 (Glutamate NMDA receptor [1]) | IC50 (Glutamate NMDA receptor [2]) |
| --- | --- | --- |
| O=C(O)[C@H]1C[C@@H](Cc2nnn[nH]2)CCN1 (racemic) | 107 nM | 4200 nM |
| O=C(O)[C@H]1C[C@@H](Cc2nnn[nH]2)CCN1 (stereo in doubt) | 67 nM | 1900 nM |
| O=C(O)[C@H]1C[C@@H](Cc2nnn[nH]2)CCN1 (stereo in doubt; (+)-1) | 2390 nM | 39100 nM |
